Measured values: patent publication US20180319810A1, “SUBSTITUTED BRIDGED UREA ANALOGS AS SIRTUIN MODULATORS” (GlaxoSmithKline Intellectual Property (No.2) Limited, priority 2014, published 2018)

Molecular target: T1, SIRT1 (Homo sapiens, UniProt Q96EB6)
T1 sequence (Q96EB6 1-747): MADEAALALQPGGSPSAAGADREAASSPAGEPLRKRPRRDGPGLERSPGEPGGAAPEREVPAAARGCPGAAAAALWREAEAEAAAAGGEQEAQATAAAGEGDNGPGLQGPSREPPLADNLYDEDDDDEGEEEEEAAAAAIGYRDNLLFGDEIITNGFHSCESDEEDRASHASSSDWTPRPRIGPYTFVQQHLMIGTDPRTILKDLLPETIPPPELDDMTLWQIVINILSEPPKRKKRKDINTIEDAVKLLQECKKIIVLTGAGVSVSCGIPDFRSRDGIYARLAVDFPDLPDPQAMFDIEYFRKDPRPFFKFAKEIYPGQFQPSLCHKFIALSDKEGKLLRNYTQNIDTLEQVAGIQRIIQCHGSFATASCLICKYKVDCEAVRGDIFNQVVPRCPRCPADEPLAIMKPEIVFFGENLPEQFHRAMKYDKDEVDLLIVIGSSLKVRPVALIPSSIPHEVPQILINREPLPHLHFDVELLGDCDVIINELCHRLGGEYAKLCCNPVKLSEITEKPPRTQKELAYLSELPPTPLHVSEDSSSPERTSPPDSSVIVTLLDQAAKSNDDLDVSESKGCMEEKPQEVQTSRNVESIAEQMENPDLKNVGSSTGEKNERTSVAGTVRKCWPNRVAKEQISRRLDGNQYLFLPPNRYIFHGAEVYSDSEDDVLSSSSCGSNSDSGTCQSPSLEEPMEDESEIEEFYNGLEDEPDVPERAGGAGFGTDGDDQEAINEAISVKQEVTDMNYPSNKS
Test: Trp mass spectrometry assay of SIRT1 activation
Assay type: biochemical
Details: Trp peptide Ac-R-H-K-K(Ac)-W-NH2 0.5 μM, 120 μM βNAD+, 10 nM SIRT1, 25 min, 25° C.

In the case of `C[C@@H](NC(=O)c1ncc2c(n1)N(C(=O)Nc1cc(OC[C@H](O)CO)ncn1)[C@H]1CCCN2C1)C(F)(F)F` [Example 77, (9S)—N10-(6-((R)-2,3-dihydroxypropoxy)pyrimidin-4-yl)-N2-((R)-1,1,1-trifluoropropan-2-yl)-8,9-dihydro-6H-5,9-methanopyrimido[4,5-b][1,4]diazocine-2,10(7H)-dicarboxamide], the “TRP Activity (EC1.5, concentration of compound required to increase SIRT1 activity by 50% over control)” value is reported as “B (EC1.5 1-25 μM)” and the “TRP MAX RESP (percent maximum fold activation relative to control)” value is reported as “A (Fold activation ≥150%)”.

For `C[C@@H](NC(=O)c1ncc2c(n1)N(C(=O)Nc1cccc(OC[C@H](O)CO)n1)[C@H]1CCCN2C1)C(F)(F)F` [Example 78, (9S)—N10-(6-((R)-2,3-dihydroxypropoxy)pyridin-2-yl)-N2-((R)-1,1,1-trifluoropropan-2-yl)-8,9-dihydro-6H-5,9-methanopyrimido[4,5-b][1,4]diazocine-2,10(7H)-dicarboxamide], the “TRP Activity (EC1.5, concentration of compound required to increase SIRT1 activity by 50% over control)” value was “B (EC1.5 1-25 μM)” and the “TRP MAX RESP (percent maximum fold activation relative to control)” value was “A (Fold activation ≥150%)”.

`O=C(Nc1ccnc(OC[C@@H](O)CO)n1)N1c2nc(-c3cccc(C(F)(F)F)c3)ncc2N2CCC[C@H]1C2` [Example 79, (9S)—N-(2-((S)-2,3-dihydroxypropoxy)pyrimidin-4-yl)-2-(3-(trifluoromethyl)phenyl)-8,9-dihydro-6H-5,9-methanopyrimido[4,5-b][1,4]diazocine-10(7H)-carboxamide] was tested, and the “TRP Activity (EC1.5, concentration of compound required to increase SIRT1 activity by 50% over control)” value was “A (EC1.5<1 μM)” and the “TRP MAX RESP (percent maximum fold activation relative to control)” value was “A (Fold activation ≥150%)”.

For `O=C(Nc1cc(OC[C@H](O)CO)ccn1)N1c2nc(-c3cccc(C(F)(F)F)c3)ncc2N2CCC[C@H]1C2` [Example 80, (9S)—N-(4-((R)-2,3-dihydroxypropoxy)pyridin-2-yl)-2-(3-(trifluoromethyl)phenyl)-8,9-dihydro-6H-5,9-methanopyrimido[4,5-b][1,4]diazocine-10(7H)-carboxamide], the “TRP Activity (EC1.5, concentration of compound required to increase SIRT1 activity by 50% over control)” value was “A (EC1.5<1 μM)” and the “TRP MAX RESP (percent maximum fold activation relative to control)” value was “A (Fold activation ≥150%)”.

For `O=C(Nc1cncc(OC[C@H](O)CO)c1)N1c2nc(-c3cccc(C(F)(F)F)c3)ncc2N2CCC[C@H]1C2` [Example 81, (9S)—N-(5-((R)-2,3-dihydroxypropoxy)pyridin-3-yl)-2-(3-(trifluoromethyl)phenyl)-8,9-dihydro-6H-5,9-methanopyrimido[4,5-b][1,4]diazocine-10(7H)-carboxamide], the “TRP Activity (EC1.5, concentration of compound required to increase SIRT1 activity by 50% over control)” value was “A (EC1.5<1 μM)” and the “TRP MAX RESP (percent maximum fold activation relative to control)” value was “A (Fold activation ≥150%)”.

With `O=C(Nc1ccc(OC[C@H](O)CO)nc1)N1c2nc(-c3cccc(C(F)(F)F)c3)ncc2N2CCC[C@H]1C2` [Example 82, (9S)—N-(6-((R)-2,3-dihydroxypropoxy)pyridin-3-yl)-2-(3-(trifluoromethyl)phenyl)-8,9-dihydro-6H-5,9-methanopyrimido[4,5-b][1,4]diazocine-10(7H)-carboxamide] the “TRP Activity (EC1.5, concentration of compound required to increase SIRT1 activity by 50% over control)” value was “A (EC1.5<1 μM)” and the “TRP MAX RESP (percent maximum fold activation relative to control)” value was “A (Fold activation ≥150%)”.

For `O=C(Nc1cnc(OC[C@@H](O)CO)cn1)N1c2nc(-c3cccc(C(F)(F)F)c3)ncc2N2CCC[C@H]1C2` [Example 83, (9S)—N-(5-((S)-2,3-dihydroxypropoxy)pyrazin-2-yl)-2-(3-(trifluoromethyl)phenyl)-8,9-dihydro-6H-5,9-methanopyrimido[4,5-b][1,4]diazocine-10(7H)-carboxamide], the “TRP Activity (EC1.5, concentration of compound required to increase SIRT1 activity by 50% over control)” value was “A (EC1.5<1 μM)” and the “TRP MAX RESP (percent maximum fold activation relative to control)” value was “A (Fold activation ≥150%)”.

With `O=C(Nc1cccc(OC[C@@H](O)CO)n1)N1c2nc(-c3cccc(C(F)(F)F)c3)ncc2N2CCC[C@H]1C2` [Example 84, (9S)—N-(6-((S)-2,3-dihydroxypropoxy)pyridin-2-yl)-2-(3-(trifluoromethyl)phenyl)-8,9-dihydro-6H-5,9-methanopyrimido[4,5-b][1,4]diazocine-10(7H)-carboxamide] the “TRP Activity (EC1.5, concentration of compound required to increase SIRT1 activity by 50% over control)” value was “A (EC1.5<1 μM)” and the “TRP MAX RESP (percent maximum fold activation relative to control)” value was “A (Fold activation ≥150%)”.

With `O=C(Nc1ccnc(OC[C@@H](O)CO)c1)N1c2nc(-c3cccc(C(F)(F)F)c3)ncc2N2CCC[C@H]1C2` [Example 85, (9S)—N-(2-((S)-2,3-dihydroxypropoxy)pyridin-4-yl)-2-(3-(trifluoromethyl)phenyl)-8,9-dihydro-6H-5,9-methanopyrimido[4,5-b][1,4]diazocine-10(7H)-carboxamide] the “TRP Activity (EC1.5, concentration of compound required to increase SIRT1 activity by 50% over control)” value was “A (EC1.5<1 μM)” and the “TRP MAX RESP (percent maximum fold activation relative to control)” value was “A (Fold activation ≥150%)”.

`O=C(Nc1ccccn1)N1c2nc(-c3cccc(C(F)(F)F)c3)ncc2N2CCC[C@H]1C2` [Example 86, (9S)—N-(pyridin-2-yl)-2-(3-(trifluoromethyl)phenyl)-8,9-dihydro-6H-5,9-methanopyrimido[4,5-b][1,4]diazocine-10(7H)-carboxamide] was tested, and the “TRP Activity (EC1.5, concentration of compound required to increase SIRT1 activity by 50% over control)” value was “A (EC1.5<1 μM)”.

`O=C(NC1CC1)N1c2nc(-c3cccc(C(F)(F)F)c3)ncc2N2CCC[C@H]1C2` [Example 87, (9S)—N-cyclopropyl-2-(3-(trifluoromethyl)phenyl)-8,9-dihydro-6H-5,9-methanopyrimido[4,5-b][1,4]diazocine-10(7H)-carboxamide] was tested, and the “TRP Activity (EC1.5, concentration of compound required to increase SIRT1 activity by 50% over control)” value was “A (EC1.5<1 μM)” and the “TRP MAX RESP (percent maximum fold activation relative to control)” value was “A (Fold activation ≥150%)”.

In the case of `O=C(Nc1ccnc(OC[C@H](O)CO)n1)N1c2nc(-c3cccc(C(F)(F)F)c3)ncc2N2CCC[C@H]1C2` [Example 88, (9S)—N-(2-((R)-2,3-dihydroxypropoxy)pyrimidin-4-yl)-2-(3-(trifluoromethyl)phenyl)-8,9-dihydro-6H-5,9-methanopyrimido[4,5-b][1,4]diazocine-10(7H)-carboxamide], the “TRP Activity (EC1.5, concentration of compound required to increase SIRT1 activity by 50% over control)” value is reported as “A (EC1.5<1 μM)” and the “TRP MAX RESP (percent maximum fold activation relative to control)” value is reported as “A (Fold activation ≥150%)”.

For `O=C(Nc1cccc(OC[C@H](O)CO)n1)N1c2nc(-c3cccc(C(F)(F)F)c3)ncc2N2CCC[C@H]1C2` [Example 89, (9S)—N-(6-((R)-2,3-dihydroxypropoxy)pyridin-2-yl)-2-(3-(trifluoromethyl)phenyl)-8,9-dihydro-6H-5,9-methanopyrimido[4,5-b][1,4]diazocine-10(7H)-carboxamide], the “TRP Activity (EC1.5, concentration of compound required to increase SIRT1 activity by 50% over control)” value was “A (EC1.5<1 μM)” and the “TRP MAX RESP (percent maximum fold activation relative to control)” value was “A (Fold activation ≥150%)”.
